Molecular target: T1, NK3 receptor (Homo sapiens, UniProt P29371)
T1 construct: expressed in transfected cells; host or cells: CHO cell lines (plasma membrane preparation)
T1 sequence (P29371 1-465): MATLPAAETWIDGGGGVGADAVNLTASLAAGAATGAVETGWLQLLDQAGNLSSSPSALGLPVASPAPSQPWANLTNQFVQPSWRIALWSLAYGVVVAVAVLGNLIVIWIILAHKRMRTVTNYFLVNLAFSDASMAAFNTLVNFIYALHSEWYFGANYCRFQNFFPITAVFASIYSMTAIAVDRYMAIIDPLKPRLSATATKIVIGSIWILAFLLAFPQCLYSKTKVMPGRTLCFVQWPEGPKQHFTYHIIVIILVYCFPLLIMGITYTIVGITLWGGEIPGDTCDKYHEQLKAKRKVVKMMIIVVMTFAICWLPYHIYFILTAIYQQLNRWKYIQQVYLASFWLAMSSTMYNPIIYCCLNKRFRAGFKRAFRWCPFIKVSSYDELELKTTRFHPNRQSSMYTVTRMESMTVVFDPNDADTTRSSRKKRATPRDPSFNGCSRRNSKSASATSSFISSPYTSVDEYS
Assay: NK3 binding affinity, scintillation proximity assay (SPA)
Details: 125I [MePhe7]-NKB; plasma membrane from CHO cell lines expressing NK3 receptors
Procedure: The NK3 binding affinity of the compounds of the invention was determined using the following scintillation proximity assay (SPA) (see H. M. Sarau et al, J. Pharmacol. Experimental Therapeutics 1997, 281(3), 1303-1311; H. M. Sarau et al, J. Pharmacol. Experimental Therapeutics 2000, 295(1), 373-381; G. A. M. Giardina et al J. Med. Chem. 1999, 42, 1053-1065). Polystyrene Leadseeker WGA-SPA beads (Amersham Biosciences) were mixed with plasma membrane prepared from CHO cell lines expressing NK3 receptors in a bead/membrane ratio of 20:1 (w/w) in assay buffer (75 mM Tris pH 7.8, 75 mM NaCl, 4 mM MnCl2, 1 mM EDTA, 0.05% Chaps, 1 mM PMSF). The mixture was placed on ice for 20 minutes to allow the formation of membrane/bead complex before BSA was added to a final concentration of 1%. After another 20 minutes incubation on ice, the bead/membrane complex was washed twice and suspended in assay buffer. ^125I [MePhe7]-NKB was then added to the bead/membrane complex. […] After 2-3 hours incubation at room temperature with shaking, the plates were spun for 2 min at 1100 rpm and measured in Viewlux imager (PerkinElmer) for 5 minutes with a 618-nm filter. Inhibition of the radioactive ligand binding to the NK3 receptor was measured by the reduction of signal. pKi was calculated using Kd of the radioactive ligand determined in a separate experiment.

Ki: 6.31 nM
Compound: CC[C@H](NC(=O)c1c(COC[C@@H]2CCCN2C)c(-c2ccccc2)nc2ccccc12)c1ccccc1 [Example 1, 3-[({[(2S)-1-Methyl-2-pyrrolidinyl]methyl}oxy)methyl]-2-phenyl-N-[(1S)-1-phenylpropyl]-4-quinolinecarboxamide]

From patent US20080261945A1, “Compounds Having Activity at Nk3 Receptor and Uses Thereof in Medicine” (SMITHKLINE BEECHAM CORPORATION, priority 2004, published 2008)
